Patent publication US8354436B2 (4SC Discovery GmbH, priority 2011, dated 2013)
Like-named read-outs stand apart in the source and are kept apart here.

Columns and labels:
IFN-γ = IFN-γ production by PHA-stimulated human PBMC (OptEIA human IFN-g ELISA); type: cell-based; conditions: PHA-stimulated human PBMC, 48 hours; column C; read-out: IC50 (IFNγ)
Procedure: Analysis of Proliferation of and Cytokine Production by Human PBMC Stimulated with PHA
Peripheral blood mononuclear cells (PBMC) from healthy human donors were purified using Accuspin™ System-Histopaque-1077 (Sigma) according to the protocol recommended by the manufacturer. Purified PBMC were then washed twice with phosphate-buffered saline (PBS) and resuspended in RPMI1640 culture medium supplemented with 10% dialyzed heat inactivated fetal calf serum, 1.5 mM L-glutamine, 100 U penicillin/ml, and […] (all from PAN Biotech, Aidenbach, Germany). For stimulation, PBMC were seeded at 1×10^5 cells/well, activated with 2 μg/ml phytohaemagglutinin (PHA, Sigma) and incubated with the test compounds for 48 hours. IL-17A, IL-17F and INF-γ were then determined in the culture supernatant using a Luminex BioPlex system, following the manufacturer's instructions (BioRad, Munich, Germany). For screening, compounds were used at 10, 1, 0.1 and 0.01 μM. To determine the IC50, compounds were titrated semilogarithmically.
Cytokines were determined in the aforementioned culture supernatant using the following methods: IL-17AA/AF was measured using the Luminex BioPlex system (BioRad, Munich, Germany); IL-17AA using the human homodimer IL-17A ELISA Ready Set Go Kit from eBioscience (Frankfurt, Germany); IL-17FF using the human IL-17F ELI-Pair from Hölzel DiagnosticaGmBH (Köln, Germany); and IFN-γ using the OptEIA human IFN-g ELISA from BD Bioscience (Heidelberg, Germany), all following the manufacturer's instructions.

[1] = system: PBMC from healthy human donors; test: T cell proliferation assay (PHA-stimulated human PBMC, BrdU ELISA); type: cell-based; conditions: 48 hours
Procedure: Cell proliferation was analysed using the BrdU based cell proliferation ELISA from Roche (Mannheim, Germany) according to the manufacturer's instructions. T Cell Proliferation Assay Peripheral blood mononuclear cells (PBMC) from healthy human donors were isolated by centrifugation over Ficoll-Hypaque (Sigma-Aldrich, Germany) according to manufacturer's instructions. Purified PBMC were washed twice with PBS and resuspended in RPMI1640 culture medium supplemented with 10% dialyzed heat inactivated fetal calf serum, 1.5 mM L-glutamine, 100 U penicillin/ml, and […] (all from PAN Biotech, Aidenbach, Germany). For stimulation, PBMC were seeded at 1×10^5 cells/well, activated with 2 μg/ml phytohaemagglutinin (PHA, Sigma) and incubated with the test compound. After 48 hours proliferation was measured using the BrdU based cell proliferation ELISA from Roche (Mannheim, Germany) according to the manual.

[2] = PHA-stimulated human PBMC, column D, read-out: IC50 (Tcell proliferation)

| SMILES | IC50 (IFN-γ) [nM] | IC50 [1, 2] [nM] | IC50 ([1]; human PBMC, 2 μg/ml PHA, read-out: D: IC50 (Tcell proliferation)) [nM] |
| --- | --- | --- | --- |
| CN1CCN(C(=O)c2c(-c3c(F)cccc3Cl)noc2-c2cnn(-c3cccc(Cl)c3)c2C(F)(F)F)CC1 [IB-34, (3-(2-chloro-6-fluorophenyl)-5-(1-(3-chlorophenyl)-5-(trifluoromethyl)-1H-pyrazol-4-yl)-isoxazol-4-yl)(4-methylpiperazin-1-yl)methanone] | 100 to 1000 | 100 to 1000 |  |
| COC(=O)c1c(-c2c(F)cccc2Cl)noc1-c1cnn(-c2ccc(Cl)cc2Cl)c1C(F)(F)F [Example I-7, methyl 3-(2-chloro-6-fluorophenyl)-5-(1-(2,4-dichlorophenyl)-5-(trifluoromethyl)-1H-pyrazol-4-yl)isoxazole-4-carboxylate] |  | 1000 to 10000 |  |
| COC(=O)c1c(-c2ccccc2)noc1-c1cnn(-c2cccc(F)c2)c1C(F)(F)F [Example I-51, methyl 5-(1-(3-fluorophenyl)-5-(trifluoromethyl)-1H-pyrazol-4-yl)-3-phenylisoxazole-4-carboxylate] | 1000 to 10000 | 1000 to 10000 |  |
| CCOC(=O)c1c(-c2onc(-c3c(F)cccc3Cl)c2C(=O)OC)cnn1-c1ccccc1 [Example I-34, methyl 3-(2-chloro-6-fluorophenyl)-5-(5-(ethoxycarbonyl)-1-phenyl-1Hpyrazol-4-yl)isoxazole-4-carboxylate] |  | 1000 to 10000 |  |
| COC(=O)c1c(-c2c(F)cccc2Cl)noc1-c1cnn(-c2nc(-c3ccc(F)cc3)cs2)c1C(F)(F)F [Example I-54, methyl 3-(2-chloro-6-fluorophenyl)-5-(1-(4-(4-fluorophenyl)thiazol-2-yl)-5-(trifluoromethyl)-1H-pyrazol-4-yl)isoxazole-4-carboxylate] |  | 1000 to 10000 |  |
| COC(=O)c1c(-c2c(F)cccc2Cl)noc1-c1cnn(-c2ccccc2I)c1C(F)(F)F [Example I-88, methyl 3-(2-chloro-6-fluorophenyl)-5-(1-(2-iodophenyl)-5-(trifluoromethyl)-1H-pyrazol-4-yl)isoxazole-4-carboxylate] |  | 1000 to 10000 |  |
| COC(=O)c1c(-c2ccc(OC)cc2)noc1-c1cnn(-c2cccc(F)c2)c1C(F)(F)F [Example I-107, methyl 5-(1-(3-fluorophenyl)-5-(trifluoromethyl)-1H-pyrazol-4-yl)-3-(4-methoxyphenyl)isoxazole-4-carboxylate] |  | 1000 to 10000 |  |
| COC(=O)c1c(-c2c(F)cccc2Cl)noc1-c1cnn(-c2ncc(C(F)(F)F)cc2Cl)c1C(F)(F)F [Example I-87] |  | 1000 to 10000 |  |
| CC(C)OC(=O)c1c(-c2c(F)cccc2Cl)noc1-c1cnn(-c2cccc(S(N)(=O)=O)c2)c1C(F)(F)F [IB-73, isopropyl 3-(2-chloro-6-fluorophenyl)-5-(1-(3-sulfamoylphenyl)-5-(trifluoromethyl)-1H-pyrazol-4-yl)isoxazole-4-carboxylate] | 1000 to 10000 | 1000 to 10000 |  |
| CON(C)C(=O)c1c(-c2c(F)cccc2Cl)noc1-c1cnn(-c2ccccc2Br)c1C(F)(F)F [IB-74, 5-(1-(-2-bromophenyl)-5-(trifluoromethyl)-1H-pyrazol-4-yl)-3-(2-chloro-6-fluorophenyl)-N-methoxy-N-methylisoxazole-4-carboxamide] | 1000 to 10000 | 1000 to 10000 |  |
| CCOC(=O)c1c(-c2onc(-c3c(F)cccc3Cl)c2C(=O)OC)cnn1CC(C)C [Example I-29] |  | 1000 to 10000 |  |
| O=C(c1c(-c2c(F)cccc2Cl)noc1-c1cnn(-c2ccccc2F)c1C(F)(F)F)N1CCN(Cc2cccc(Cl)c2)CC1 [Example I-24, (3-(2-chloro-6-fluorophenyl)-5-(1-(2-fluorophenyl)-5-(trifluoromethyl)-1H-pyrazol-4-yl)isoxazol-4-yl)(4-(3-chlorobenzyl)piperazin-1-yl)methanone] | 1000 to 10000 | 100 to 1000 |  |
| CC(C)Cn1ncc(-c2onc(-c3c(F)cccc3Cl)c2-c2nnn[nH]2)c1C(F)(F)F [Example 1, 3-(2-chloro-6-fluorophenyl)-5-(1-isobutyl-5-(trifluoromethyl)-1H-pyrazol-4-yl)-4-(1H-tetrazol-5-yl)isoxazole] |  |  | 1000 to 10000 |
| NC(=O)c1c(-c2c(F)cccc2Cl)noc1-c1cnn(-c2cccc(F)c2)c1C(F)(F)F [Example I-124, 3-(2-chloro-6-fluorophenyl)-5-(1-(3-fluorophenyl)-5-(trifluoromethyl)-1H-pyrazol-4-yl)isoxazole-4-carboxamide] | 1000 to 10000 | 1000 to 10000 |  |
| COC(=O)c1c(-c2c(F)cccc2Cl)noc1-c1cnn(-c2cccc(Cl)c2Cl)c1C(F)(F)F [Example I-4, methyl 3-(2-chloro-6-fluorophenyl)-5-(1-(2,3-dichlorophenyl)-5-(trifluoromethyl)-1H-pyrazol-4-yl)isoxazole-4-carboxylate] |  | 1000 to 10000 |  |
| Fc1ccccc1-n1ncc(-c2onc(-c3c(F)cccc3Cl)c2Br)c1C(F)(F)F [IB-26, 4-bromo-3-(2-chloro-6-fluorophenyl)-5-(1-(2-fluorophenyl)-5-(trifluoromethyl)-1H-pyrazol-4-yl)isoxazole] | 100 to 1000 | 1000 to 10000 |  |
| COC(=O)c1c(-c2ccc(Cl)c(Cl)c2)noc1-c1cnn(-c2cccc(F)c2)c1C(F)(F)F [Example I-97, methyl 3-(3,4-dichlorophenyl)-5-(1-(3-fluorophenyl)-5-(trifluoromethyl)-1H-pyrazol-4-yl)isoxazole-4-carboxylate] |  | 1000 to 10000 |  |
| COc1ccc(-c2noc(-c3cnn(-c4cccc(F)c4)c3C(F)(F)F)c2C(=O)O)cc1 [Example I-108, 5-(1-(3-fluorophenyl)-5-(trifluoromethyl)-1H-pyrazol-4-yl)-3-(4-methoxyphenyl)isoxazole-4-carboxylic acid] |  | 1000 to 10000 |  |
| CCOC(=O)c1c(-c2c(F)cccc2Cl)noc1-c1cnn(-c2ccc(C#N)cc2)c1C(F)(F)F [IB-40, ethyl 3-(2-chloro-6-fluorophenyl)-5-(1-(4-cyanophenyl)-5-(trifluoromethyl)-1H-pyrazol-4-yl)-isoxazole-4-carboxylate] | 1000 to 10000 | 1000 to 10000 |  |
| CNC(=S)c1c(-c2c(F)cccc2Cl)noc1-c1cnn(-c2cccc(Cl)c2)c1C(F)(F)F [Example I-72, 3-(2-chloro-6-fluorophenyl)-5-(1-(3-chlorophenyl)-5-(trifluoromethyl)-1H-pyrazol-4-yl)-N-methylisoxazole-4-carbothioamide] | 100 to 1000 | 100 to 1000 |  |
| CC(=O)Nc1c(-c2c(F)cccc2Cl)noc1-c1cnn(-c2cccc(Cl)c2)c1C(F)(F)F [IB-39, N-(3-(2-chloro-6-fluorophenyl)-5-(1-(3-chlorophenyl)-5-(trifluoromethyl)-1H-pyrazol-4-yl)-isoxazol-4-yl)acetamide] | 1000 to 10000 | 1000 to 10000 |  |
| O=C(c1c(-c2c(F)cccc2Cl)noc1-c1cnn(-c2ccccc2F)c1C(F)(F)F)N1CCCCC1 [Example I-21, (3-(2-chloro-6-fluorophenyl)-5-(1-(2-fluorophenyl)-5-(trifluoromethyl)-1H-pyrazol-4-yl)isoxazol-4-yl)(piperidin-1-yl)methanone] | 10 to 100 | 10 to 100 |  |
| NNC(=O)c1c(-c2cccc(F)c2)noc1-c1cnn(-c2cccc(F)c2)c1C(F)(F)F [Example I-134, 3-(3-fluorophenyl)-5-(1-(3-fluorophenyl)-5-(trifluoromethyl)-1H-pyrazol-4-yl)isoxazole-4-carbohydrazide] |  | 1000 to 10000 |  |
| O=C(O)c1c(-c2c(F)cccc2Cl)noc1-c1cnn(Cc2ccccc2F)c1C(F)(F)F [IB-86, 3-(2-chloro-6-fluorophenyl)-5-(1-(2-fluorobenzyl)-5-(trifluoromethyl)-1H-pyrazol-4-yl)isoxazole-4-carboxylic acid] |  | 1000 to 10000 |  |
| CC(C)=NNC(=O)c1c(-c2c(F)cccc2Cl)noc1-c1cnn(-c2cccc(F)c2)c1 [IB-29, 3-(2-chloro-6-fluorophenyl)-5-(1-(3-fluorophenyl)-1H-pyrazol-4-yl)-N′-(propan-2-ylidene)isoxazole-4-carbohydrazide] | 1000 to 10000 | 1000 to 10000 |  |
| COC(=O)c1c(-c2c(F)cccc2Cl)noc1-c1cnn(-c2cccc(F)c2)c1C(F)(F)C(F)F [Example I-64, methyl 3-(2-chloro-6-fluorophenyl)-5-(1-(3-fluorophenyl)-5-(1,1,2,2-tetrafluoroethyl)-1H-pyrazol-4-yl)isoxazole-4-carboxylate] |  | 1000 to 10000 |  |
